Assay results: patent EP4722207A1, “OXOISOINDOLINYL-SUBSTITUTED TETRAHYDROPYRIMIDINEDIONE DERIVATIVE AND USE THEREOF” (Gluetacs Therapeutics (Shanghai) Co., Ltd., priority 2023, dated 2024)

How the values were obtained:
Assay type in all cases: cell-based
Settings in all cases: compounds at 50 nM and 500 nM, 24 hours
CK1α = target: T1, CK1α (Homo sapiens, UniProt P48729+Q96SW2); test: Western-blot assay, substrate protein degradation in hPBMCs: CK1α
T1 construct: effects of the compounds of the present disclosure on the expression of target proteins in cells; endogenous in cells; host or cells: human PBMCs (hPBMCs)

GSPT1 = target: T2, GSPT1 (Homo sapiens, UniProt P15170+Q96SW2); test: Western-blot assay, substrate protein degradation in hPBMCs: GSPT1
T2 construct: effects of the compounds of the present disclosure on the expression of target proteins in cells; endogenous in cells; host or cells: human PBMCs (hPBMCs)

IKZF1 = target: T3, IKZF1 (Homo sapiens, UniProt Q13422+Q96SW2); test: Western-blot assay, substrate protein degradation in hPBMCs: IKZF1
T3 construct: effects of the compounds of the present disclosure on the expression of target proteins in cells; endogenous in cells; host or cells: human PBMCs (hPBMCs)

WEE1 = target: T4, WEE1 (Homo sapiens, UniProt P30291+Q96SW2); test: Western-blot assay, substrate protein degradation in hPBMCs: WEE1
T4 construct: effects of the compounds of the present disclosure on the expression of target proteins in cells; endogenous in cells; host or cells: human PBMCs (hPBMCs)

IKZF3 = target: T5, IKZF3 (Homo sapiens, UniProt Q96SW2+Q9UKT9); test: Western-blot assay, substrate protein degradation in hPBMCs: IKZF3
T5 construct: effects of the compounds of the present disclosure on the expression of target proteins in cells; endogenous in cells; host or cells: human PBMCs (hPBMCs)

IKZF2 = target: T6, IKZF2 (Homo sapiens, UniProt Q96SW2+Q9UKS7); test: Western-blot assay, substrate protein degradation in hPBMCs: IKZF2
T6 construct: effects of the compounds of the present disclosure on the expression of target proteins in cells; endogenous in cells; host or cells: human PBMCs (hPBMCs)
T6 sequence (Q9UKS7 whole entry): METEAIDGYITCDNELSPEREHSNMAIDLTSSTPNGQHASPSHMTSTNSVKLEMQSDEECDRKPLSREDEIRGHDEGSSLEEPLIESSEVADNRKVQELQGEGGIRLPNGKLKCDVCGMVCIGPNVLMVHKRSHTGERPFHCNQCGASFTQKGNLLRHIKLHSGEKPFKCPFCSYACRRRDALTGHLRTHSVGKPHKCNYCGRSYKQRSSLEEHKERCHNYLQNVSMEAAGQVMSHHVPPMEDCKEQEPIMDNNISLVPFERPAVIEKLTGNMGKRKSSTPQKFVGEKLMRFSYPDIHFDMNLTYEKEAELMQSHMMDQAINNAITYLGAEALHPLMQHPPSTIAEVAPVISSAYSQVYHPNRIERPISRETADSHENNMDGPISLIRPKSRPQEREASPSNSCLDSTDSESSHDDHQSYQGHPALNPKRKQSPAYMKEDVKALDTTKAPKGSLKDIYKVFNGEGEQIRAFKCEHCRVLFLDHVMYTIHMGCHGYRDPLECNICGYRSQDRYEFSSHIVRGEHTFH
T6 sequence (Q96SW2 whole entry): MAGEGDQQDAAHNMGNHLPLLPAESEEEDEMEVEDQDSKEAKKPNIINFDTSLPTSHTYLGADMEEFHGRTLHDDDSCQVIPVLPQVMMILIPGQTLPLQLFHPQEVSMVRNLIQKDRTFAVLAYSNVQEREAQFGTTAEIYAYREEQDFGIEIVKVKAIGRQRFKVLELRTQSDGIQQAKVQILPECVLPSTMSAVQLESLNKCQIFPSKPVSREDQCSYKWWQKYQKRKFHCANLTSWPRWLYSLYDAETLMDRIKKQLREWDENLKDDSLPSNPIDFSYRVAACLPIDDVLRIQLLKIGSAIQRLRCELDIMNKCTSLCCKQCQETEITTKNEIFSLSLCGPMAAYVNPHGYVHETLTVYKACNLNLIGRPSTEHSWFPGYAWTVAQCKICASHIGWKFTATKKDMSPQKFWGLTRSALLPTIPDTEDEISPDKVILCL
T6 sequence (Q16531 whole entry partner): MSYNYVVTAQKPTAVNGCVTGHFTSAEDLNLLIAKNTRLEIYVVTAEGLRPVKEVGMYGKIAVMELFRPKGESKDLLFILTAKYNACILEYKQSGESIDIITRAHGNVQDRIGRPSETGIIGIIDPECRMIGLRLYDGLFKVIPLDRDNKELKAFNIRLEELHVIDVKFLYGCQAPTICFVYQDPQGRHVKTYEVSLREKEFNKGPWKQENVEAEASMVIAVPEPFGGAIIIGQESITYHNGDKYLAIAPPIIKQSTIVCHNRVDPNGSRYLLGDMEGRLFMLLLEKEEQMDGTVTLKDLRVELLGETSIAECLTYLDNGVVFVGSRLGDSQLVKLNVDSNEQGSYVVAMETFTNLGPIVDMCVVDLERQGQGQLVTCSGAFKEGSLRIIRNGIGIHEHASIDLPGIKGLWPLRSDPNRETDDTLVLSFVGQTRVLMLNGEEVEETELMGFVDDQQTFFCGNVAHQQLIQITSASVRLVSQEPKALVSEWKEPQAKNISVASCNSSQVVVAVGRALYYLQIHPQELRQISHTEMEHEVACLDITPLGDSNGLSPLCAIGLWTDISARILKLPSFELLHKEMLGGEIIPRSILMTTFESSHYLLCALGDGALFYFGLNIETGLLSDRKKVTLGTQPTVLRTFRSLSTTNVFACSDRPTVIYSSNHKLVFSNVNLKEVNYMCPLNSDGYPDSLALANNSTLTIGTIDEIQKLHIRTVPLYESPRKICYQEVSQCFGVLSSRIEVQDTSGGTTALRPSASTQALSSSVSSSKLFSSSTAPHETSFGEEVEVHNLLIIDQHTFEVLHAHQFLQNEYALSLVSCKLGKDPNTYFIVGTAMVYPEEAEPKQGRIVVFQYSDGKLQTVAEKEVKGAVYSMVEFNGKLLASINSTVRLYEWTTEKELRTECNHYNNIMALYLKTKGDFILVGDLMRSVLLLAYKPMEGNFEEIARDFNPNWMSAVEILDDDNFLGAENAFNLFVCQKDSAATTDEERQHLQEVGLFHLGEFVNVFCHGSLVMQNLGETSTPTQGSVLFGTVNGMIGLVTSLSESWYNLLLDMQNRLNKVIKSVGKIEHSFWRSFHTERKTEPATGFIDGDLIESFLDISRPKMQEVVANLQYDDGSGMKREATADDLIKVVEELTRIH

T2 sequence (P15170 whole entry): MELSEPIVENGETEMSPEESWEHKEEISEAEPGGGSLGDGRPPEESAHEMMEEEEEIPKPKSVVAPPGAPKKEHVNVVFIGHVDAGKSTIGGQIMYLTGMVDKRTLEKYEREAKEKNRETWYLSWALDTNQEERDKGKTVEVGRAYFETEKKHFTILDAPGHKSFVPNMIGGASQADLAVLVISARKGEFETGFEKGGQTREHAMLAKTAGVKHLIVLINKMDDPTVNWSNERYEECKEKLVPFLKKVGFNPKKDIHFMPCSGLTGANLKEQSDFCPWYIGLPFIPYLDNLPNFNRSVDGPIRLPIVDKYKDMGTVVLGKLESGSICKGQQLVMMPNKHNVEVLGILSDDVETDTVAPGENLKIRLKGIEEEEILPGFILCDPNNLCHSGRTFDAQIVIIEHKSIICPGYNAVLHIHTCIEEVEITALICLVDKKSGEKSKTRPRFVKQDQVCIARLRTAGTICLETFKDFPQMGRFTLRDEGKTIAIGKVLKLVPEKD
T2 sequence (Q96SW2 whole entry): as the sequence (Q96SW2 whole entry) above
T2 sequence (Q16531 whole entry partner): as the sequence (Q16531 whole entry partner) above
T3 sequence (Q13422 whole entry): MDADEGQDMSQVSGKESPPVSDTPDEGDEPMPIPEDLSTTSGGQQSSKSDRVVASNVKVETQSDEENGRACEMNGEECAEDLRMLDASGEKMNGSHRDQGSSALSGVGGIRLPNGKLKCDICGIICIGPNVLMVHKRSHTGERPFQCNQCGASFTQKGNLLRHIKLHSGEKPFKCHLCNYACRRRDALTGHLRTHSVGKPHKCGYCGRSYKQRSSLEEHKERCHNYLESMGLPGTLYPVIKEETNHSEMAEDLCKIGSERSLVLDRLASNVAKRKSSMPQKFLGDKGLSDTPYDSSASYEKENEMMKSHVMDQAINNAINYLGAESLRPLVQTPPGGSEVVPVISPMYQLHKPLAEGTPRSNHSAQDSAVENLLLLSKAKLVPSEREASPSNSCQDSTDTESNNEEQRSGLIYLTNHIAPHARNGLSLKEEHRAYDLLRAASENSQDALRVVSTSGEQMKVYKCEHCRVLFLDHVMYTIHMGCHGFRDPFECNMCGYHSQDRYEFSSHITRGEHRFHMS
T3 sequence (Q96SW2 whole entry): as the sequence (Q96SW2 whole entry) above
T3 sequence (Q16531 whole entry partner): as the sequence (Q16531 whole entry partner) above
T5 sequence (Q9UKT9 whole entry): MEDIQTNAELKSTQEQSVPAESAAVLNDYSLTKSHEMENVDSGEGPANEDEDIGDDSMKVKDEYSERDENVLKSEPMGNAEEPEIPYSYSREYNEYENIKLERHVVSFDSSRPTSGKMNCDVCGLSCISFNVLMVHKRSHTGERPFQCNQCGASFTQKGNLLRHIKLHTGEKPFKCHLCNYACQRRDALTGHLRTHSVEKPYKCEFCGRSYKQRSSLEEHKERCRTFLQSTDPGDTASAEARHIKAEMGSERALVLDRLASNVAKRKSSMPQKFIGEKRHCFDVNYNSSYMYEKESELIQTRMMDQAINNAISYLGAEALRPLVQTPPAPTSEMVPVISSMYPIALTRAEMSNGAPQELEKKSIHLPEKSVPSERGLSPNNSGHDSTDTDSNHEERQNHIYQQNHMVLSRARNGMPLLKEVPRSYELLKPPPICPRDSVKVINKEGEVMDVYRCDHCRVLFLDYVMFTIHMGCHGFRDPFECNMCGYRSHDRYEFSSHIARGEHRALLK
T5 sequence (Q96SW2 whole entry): as the sequence (Q96SW2 whole entry) above
T5 sequence (Q16531 whole entry partner): as the sequence (Q16531 whole entry partner) above
T4 sequence (P30291 whole entry): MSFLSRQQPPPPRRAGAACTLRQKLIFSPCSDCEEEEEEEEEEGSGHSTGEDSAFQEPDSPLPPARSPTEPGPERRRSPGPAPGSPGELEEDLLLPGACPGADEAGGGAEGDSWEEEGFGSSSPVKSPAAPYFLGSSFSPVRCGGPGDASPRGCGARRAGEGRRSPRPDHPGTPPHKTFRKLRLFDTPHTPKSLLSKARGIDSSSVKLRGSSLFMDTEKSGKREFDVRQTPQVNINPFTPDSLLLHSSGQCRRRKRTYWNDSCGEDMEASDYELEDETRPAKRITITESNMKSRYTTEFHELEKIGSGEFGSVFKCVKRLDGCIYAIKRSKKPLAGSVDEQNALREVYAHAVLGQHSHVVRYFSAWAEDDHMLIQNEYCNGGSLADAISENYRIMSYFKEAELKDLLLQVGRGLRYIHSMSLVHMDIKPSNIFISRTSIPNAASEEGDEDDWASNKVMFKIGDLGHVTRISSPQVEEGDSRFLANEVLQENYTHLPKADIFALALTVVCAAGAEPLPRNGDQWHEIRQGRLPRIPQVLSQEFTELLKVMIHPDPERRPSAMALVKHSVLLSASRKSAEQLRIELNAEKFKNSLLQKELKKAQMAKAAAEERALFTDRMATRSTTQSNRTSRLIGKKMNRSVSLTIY
T4 sequence (Q96SW2 whole entry): as the sequence (Q96SW2 whole entry) above
T4 sequence (Q16531 whole entry partner): as the sequence (Q16531 whole entry partner) above

Compound	CK1α substrate protein remaining % (CK1α)	GSPT1 substrate protein remaining % (GSPT1)	IKZF1 substrate protein remaining % (IKZF1)	WEE1 substrate protein remaining % (WEE1)	IKZF3 substrate protein remaining % (IKZF3)	IKZF2 substrate protein remaining % (IKZF2)
CC1(C)CCC(CN2C3CC2CN(Cc2ccc4c(c2)C(=O)N(N2CCC(=O)NC2=O)C4=O)C3)=C(c2ccc(Cl)cc2)C1 [GT-06459, 5-((6-((4'-chloro-5,5-dimethyl-3,4,5,6-tetrahydro-[1,1'-biphenyl]-2-yl)methyl)-3,6-diazabicyclo[3.1.1]heptan-3-yl)methyl)-2-(2,4-dioxotetrahydropyrimidin-1(2H)-yl)isoindoline-1,3-dione]	A ("A" is defined as 0% ≤ substrate protein remaining % ≤ 80%)	A ("A" is defined as 0% ≤ substrate protein remaining % ≤ 80%)	A ("A" is defined as 0% ≤ substrate protein remaining % ≤ 80%)	A ("A" is defined as 0% ≤ substrate protein remaining % ≤ 80%)	A ("A" is defined as 0% ≤ substrate protein remaining % ≤ 80%)	A ("A" is defined as 0% ≤ substrate protein remaining % ≤ 80%)
O=C1CCN(N2Cc3cc(CN4CCN(c5cccc(F)c5)CC4)ccc3C2=O)C(=O)N1 [GT-06701, 1-(5-((4-(3-fluorophenyl)piperazin-1-yl)methyl)-1-oxoisoindolin-2-yl)dihydropyrimidine-2,4(1H,3H)-dione]	A ("A" is defined as 0% ≤ substrate protein remaining % ≤ 80%)	A ("A" is defined as 0% ≤ substrate protein remaining % ≤ 80%)	B ("B" is defined as 80%< substrate protein remaining %≤ 100%)	B ("B" is defined as 80%< substrate protein remaining %≤ 100%)	B ("B" is defined as 80%< substrate protein remaining %≤ 100%)	B ("B" is defined as 80%< substrate protein remaining %≤ 100%)
O=C1CCN(N2C(=O)c3ccc(CN4CCN(c5ccccc5)CC4)cc3C2=O)C(=O)N1 [GT-06719, 2-(2,4-dioxotetrahydropyrimidin-1(2H)-yl)-5-((4-phenylpiperazin-1-yl)methyl)isoindoline-1,3-dione]	B ("B" is defined as 80%< substrate protein remaining %≤ 100%)	B ("B" is defined as 80%< substrate protein remaining %≤ 100%)	B ("B" is defined as 80%< substrate protein remaining %≤ 100%)	B ("B" is defined as 80%< substrate protein remaining %≤ 100%)	A ("A" is defined as 0% ≤ substrate protein remaining % ≤ 80%)	B ("B" is defined as 80%< substrate protein remaining %≤ 100%)
COc1ccccc1N1CCN(Cc2ccc3c(c2)C(=O)N(N2CCC(=O)NC2=O)C3=O)CC1 [GT-06720, 2-(2,4-dioxotetrahydropyrimidin-1(2H)-yl)-5-((4-(2-methoxyphenyl)piperazin-1-yl)methyl)isoindoline-1,3-dione]	B ("B" is defined as 80%< substrate protein remaining %≤ 100%)	B ("B" is defined as 80%< substrate protein remaining %≤ 100%)	B ("B" is defined as 80%< substrate protein remaining %≤ 100%)	B ("B" is defined as 80%< substrate protein remaining %≤ 100%)	A ("A" is defined as 0% ≤ substrate protein remaining % ≤ 80%)	B ("B" is defined as 80%< substrate protein remaining %≤ 100%)
COc1cccc(N2CCN(Cc3ccc4c(c3)C(=O)N(N3CCC(=O)NC3=O)C4=O)CC2)c1 [GT-06721, 2-(2,4-dioxotetrahydropyrimidin-1(2H)-yl)-5-((4-(3-methoxyphenyl)piperazin-1-yl)methyl)isoindoline-1,3-dione]	B ("B" is defined as 80%< substrate protein remaining %≤ 100%)	B ("B" is defined as 80%< substrate protein remaining %≤ 100%)	A ("A" is defined as 0% ≤ substrate protein remaining % ≤ 80%)	B ("B" is defined as 80%< substrate protein remaining %≤ 100%)	A ("A" is defined as 0% ≤ substrate protein remaining % ≤ 80%)	A ("A" is defined as 0% ≤ substrate protein remaining % ≤ 80%)
O=C1CCN(N2C(=O)c3ccc(CN4CCN(c5cccc(Br)c5)CC4)cc3C2=O)C(=O)N1 [GT-06722, 5-((4-(3-bromophenyl)piperazin-1-yl)methyl)-2-(2,4-dioxotetrahydropyrimidin-1(2H)-yl)isoindoline-1,3-dione]	A ("A" is defined as 0% ≤ substrate protein remaining % ≤ 80%)	B ("B" is defined as 80%< substrate protein remaining %≤ 100%)	A ("A" is defined as 0% ≤ substrate protein remaining % ≤ 80%)	A ("A" is defined as 0% ≤ substrate protein remaining % ≤ 80%)	A ("A" is defined as 0% ≤ substrate protein remaining % ≤ 80%)	B ("B" is defined as 80%< substrate protein remaining %≤ 100%)
O=C1CCN(N2C(=O)c3ccc(CN4CCN(c5cccc(F)c5)CC4)cc3C2=O)C(=O)N1 [GT-06724, 2-(2,4-dioxotetrahydropyrimidin-1(2H)-yl)-5-((4-(3-fluorophenyl)piperazin-1-yl)methyl)isoindoline-1,3-dione]	B ("B" is defined as 80%< substrate protein remaining %≤ 100%)	B ("B" is defined as 80%< substrate protein remaining %≤ 100%)	A ("A" is defined as 0% ≤ substrate protein remaining % ≤ 80%)	A ("A" is defined as 0% ≤ substrate protein remaining % ≤ 80%)	B ("B" is defined as 80%< substrate protein remaining %≤ 100%)	B ("B" is defined as 80%< substrate protein remaining %≤ 100%)
O=C1CCN(N2C(=O)c3ccc(CN4CCN(c5ccc(F)cc5)CC4)cc3C2=O)C(=O)N1 [GT-06725, 2-(2,4-dioxotetrahydropyrimidin-1(2H)-yl)-5-((4-(4-fluorophenyl)piperazin-1-yl)methyl)isoindoline-1,3-dione]	B ("B" is defined as 80%< substrate protein remaining %≤ 100%)	B ("B" is defined as 80%< substrate protein remaining %≤ 100%)	A ("A" is defined as 0% ≤ substrate protein remaining % ≤ 80%)	B ("B" is defined as 80%< substrate protein remaining %≤ 100%)	B ("B" is defined as 80%< substrate protein remaining %≤ 100%)	B ("B" is defined as 80%< substrate protein remaining %≤ 100%)
O=C1CCN(N2C(=O)c3ccc(CN4CCN(c5ccccc5Cl)CC4)cc3C2=O)C(=O)N1 [GT-06726, 5-((4-(2-chlorophenyl)piperazin-1-yl)methyl)-2-(2,4-dioxotetrahydropyrimidin-1(2H)-yl)isoindoline-1,3-dione]	A ("A" is defined as 0% ≤ substrate protein remaining % ≤ 80%)	B ("B" is defined as 80%< substrate protein remaining %≤ 100%)	B ("B" is defined as 80%< substrate protein remaining %≤ 100%)	A ("A" is defined as 0% ≤ substrate protein remaining % ≤ 80%)	A ("A" is defined as 0% ≤ substrate protein remaining % ≤ 80%)	A ("A" is defined as 0% ≤ substrate protein remaining % ≤ 80%)
O=C1CCN(N2C(=O)c3ccc(CN4CCN(c5ccccc5Br)CC4)cc3C2=O)C(=O)N1 [GT-06727, 5-((4-(2-bromophenyl)piperazin-1-yl)methyl)-2-(2,4-dioxotetrahydropyrimidin-1(2H)-yl)isoindoline-1,3-dione]	A ("A" is defined as 0% ≤ substrate protein remaining % ≤ 80%)	B ("B" is defined as 80%< substrate protein remaining %≤ 100%)	B ("B" is defined as 80%< substrate protein remaining %≤ 100%)	B ("B" is defined as 80%< substrate protein remaining %≤ 100%)	A ("A" is defined as 0% ≤ substrate protein remaining % ≤ 80%)	A ("A" is defined as 0% ≤ substrate protein remaining % ≤ 80%)
COc1ccc(N2CCN(Cc3ccc4c(c3)C(=O)N(N3CCC(=O)NC3=O)C4=O)CC2)cc1 [GT-06728, 2-(2,4-dioxotetrahydropyrimidin-1(2H)-yl)-5-((4-(4-methoxyphenyl)piperazin-1-yl)methyl)isoindoline-1,3-dione]	A ("A" is defined as 0% ≤ substrate protein remaining % ≤ 80%)	B ("B" is defined as 80%< substrate protein remaining %≤ 100%)	B ("B" is defined as 80%< substrate protein remaining %≤ 100%)	B ("B" is defined as 80%< substrate protein remaining %≤ 100%)	A ("A" is defined as 0% ≤ substrate protein remaining % ≤ 80%)	A ("A" is defined as 0% ≤ substrate protein remaining % ≤ 80%)
